From US10472599B2, “Microfluidic cell culture of patient-derived tumor cell spheroids” (Dana-Farber Cancer Institute, Inc., priority 2015, dated 2019)

Assays:
Format in all cases: cell-based, human
[1] = system: spheroids derived from multiple different melanoma resection specimens; assay: Light microscopy of immune response in patient-derived melanoma spheroids in 3D microfluidic culture; conditions: pembrolizumab 250 μg/mL
Experimental: On Day 1, tumor was collected in an operating room and placed in a sterile 15 mL conical tube bathed with culture media (10% FBS with DMEM or RPMI) and stored on ice. The media was aspirated in a sterile hood and the tumor specimen gently placed in a normal 10 cm culture dish on ice. Using a scalpel, the tumor was minced into smaller pieces. A sample can optionally be exposed to strong collagenase treatment to generate single cells that can be submitted directly for flow cytometry. To the 10 cm dish containing the minced tumor was added 10 mL of collagenase solution (10 mL media, 150 μL HEPES (15 mM final concentration), 100 μL collagenase (100 U/μL stock, 1 unit/μL final concentration)). The minced tumor and collagenase mixture was subsequently transferred to a 50 mL conical tube, and then transferred to a fresh low-attachment 10 cm dish. The low-attachment dish comprising the sample was incubated at 37° C. for 30-60 minutes while checking every 15-30 minutes, as the duration of time required varies from specimen to specimen. The intended outcome of this step is to generate multicellular spheroids via a limited collagenase digestion, so the sample should not be comprised entirely of single cells. After the […] incubation period, 10 mL of fresh media was added to the dish containing the tumor sample and the contents (˜20 mL) transferred to a 50 mL conical tube. […]

[2] = system: spheroids derived from multiple different melanoma resection specimens; assay: Luminex cytokine profiling of conditioned media from melanoma spheroid culture
Experimental: On Day 3, media was aspirated from the device and ˜200 μL media (1:1 mixture of 10% FBS-DMEM and EGM2 supplemented with growth factors per protocol) with or without treatment (e.g., anti-PD-1 monoclonal Ab) were added to each device. The devices were subsequently placed in humidified, sterile containers, and returned to 37° C. incubation.
On Day 6 (or 48-72 hours post-treatment), conditioned media was collected for cytokine analysis. Light microscopy was performed and images obtained to characterize and document spheroid dispersal and/or putative immune response, which is commonly characterized by non-pigmented cells surrounding the brown-pigmented melanoma spheroids. Media was collected from each device by aspiration using a 200 μL pipet, transferred to sterile 1.5 mL Eppendorf tubes, and frozen at −80° C. prior to submission to CMOP for multiplex cytokine/chemokine analysis. Also on Day 6, the cells present in the 3D culture device following treatment were characterized by multiple methods.
As the spheroids and co-cultured endothelial cells are bathed in media, the conditioned media was extracted from the device and luminex cytokine profiling was performed.

[3] = system: melanoma tumor spheroids; assay: Flow cytometry immune profiling of cells extracted from the device post-treatment
Experimental: For flow cytometry, RNA sequencing analysis, or T-cell receptor (TCR) sequencing the cells were removed using collagenase (150 μL per device) after media had been removed. […] The cells in collagenase were aspirated into a 15 mL conical tube containing 4.0 mL of sterile 1× PBS and spun down for 5 minutes at 1100 rpm. The PBS wash was gently aspirated and the pellet resuspended in 1.5 mL 10% FBS-DMEM for flow cytometry. In some instances, genomic DNA is prepared from flow-sorted T lymphocytes for TCR sequencing using the ImmunoSeq platform from Adaptive Biotechnologies to evaluate T-cell receptor clonality. Clonality can be assessed in spheroids relative to bulk tumor, and in response to immune checkpoint blockade to evaluate for increased TCR clonality (indicating expansion of tumor-reactive T cell clones). For RNA sequencing, the resuspension can be performed using 1.5 mL 10% FBS-DMEM, PBS, or a compatible lysis buffer.
Additionally, although it was demonstrable by flow cytometry of melanoma tumor spheroids at baseline that they consisted of up to 20% immune cells, including T cells, dendritic cells, monocytes (not shown), the value of extracting cells from the device and repeating flow cytometry post-treatment was realized. By repeating collagenase digestion within the device and washing cells in PBS, conditions have been developed that enable repeat immune profiling. […]

In the case of pembrolizumab, the immune response ([1]; absence of anti-CD28 co-stimulation (FIG. 4A)) is reported as “observed immune response”, the immune response ([1]; presence of anti-CD28 co-stimulation (FIG. 4B)) is reported as “observed immune response” and the “certain cytokines (e.g., IP10) in conditioned media” value ([2]; combination with anti-CD28 (FIG. 5)) is reported as “induced”. The “cytokines in conditioned media” value ([2]; following αPD1 exposure (FIG. 5)) was “pronounced up-regulation of multiple cytokines”, the “markers of early CD8 T cell activation such as CD69” value ([3]; post-treatment flow cytometry (FIG. 6A)) was “observed increase” and the “specific immune checkpoint receptors such as TIM3” value ([3]; post-treatment flow cytometry (FIG. 6B)) was “increase”.
